Measured values: patent US5585492A, “LTA4 Hydrolase inhibitors” (priority 1994, dated 1996)

Key:
[1] = target: T1, recombinant human LTA4 hydrolase (Homo sapiens, UniProt P09960); assay: Recombinant Human LTA4 Hydrolase Assay for LTA4 Hydrolase Inhibitor Activity (LTB4 by enzyme-linked immunoassay); assay type: biochemical; settings: read-out: Recombinant Human LTA4 Hydrolase Assay IC50 LTA4H
T1 construct: made in house; host or cells: Spodoptera frugiperda Sf-9 cells, baculovirus (AcNPV) expression vector
T1 sequence (P09960 1-611): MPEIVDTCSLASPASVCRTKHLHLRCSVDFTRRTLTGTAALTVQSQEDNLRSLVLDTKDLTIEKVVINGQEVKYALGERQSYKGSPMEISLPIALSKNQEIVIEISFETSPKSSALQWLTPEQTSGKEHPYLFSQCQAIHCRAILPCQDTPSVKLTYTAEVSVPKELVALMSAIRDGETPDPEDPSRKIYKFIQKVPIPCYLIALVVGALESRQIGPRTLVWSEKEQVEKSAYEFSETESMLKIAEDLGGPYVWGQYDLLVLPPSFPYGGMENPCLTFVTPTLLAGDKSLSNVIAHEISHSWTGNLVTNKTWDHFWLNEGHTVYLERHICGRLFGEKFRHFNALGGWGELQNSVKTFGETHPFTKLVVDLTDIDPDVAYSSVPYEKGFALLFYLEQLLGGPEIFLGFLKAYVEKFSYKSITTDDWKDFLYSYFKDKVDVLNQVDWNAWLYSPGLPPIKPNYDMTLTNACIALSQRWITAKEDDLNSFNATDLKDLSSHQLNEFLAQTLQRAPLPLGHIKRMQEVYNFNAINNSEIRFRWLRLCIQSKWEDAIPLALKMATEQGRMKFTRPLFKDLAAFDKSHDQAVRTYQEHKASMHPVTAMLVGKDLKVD
Experimental: Compounds of the present invention were tested for LTA4 hydrolase inhibitor activity against recombinant human LTA4 hydrolase (rhLTA4 H). […] Briefly, LTA4 hydrolase encoding DNA was amplified by polymerase chain reaction using a pair of oligonucleotide primers based on the nucleotide sequence from the 5'-end, and the complement of the 3'-end, of the coding region of the LTA4 hydrolase gene, the nucleotide sequence of which gene is known. […] A λgtll human placental cDNA library (Clonetech, Palo Alto, Calif.) provided the nucleic acid template.
One or more predetermined amounts of a compound of the invention were incubated in assay buffer (0.1M potassium phosphate, 5 mg/ml fatty acid free BSA, 10% DMSO, pH 7.4) for 10 minutes at room temperature with 250 ng of recombinant hLT4 H to allow binding, if any, between the enzyme and inhibitor. The stock enzyme solution was 1 mg/ml LTA4 hydrolase, 50 mM Tris, pH 8.0, 150 mM NaCl, 2.5 mM beta-mercaptoethanol, 50% glycerol. […] LTA4 (i.e., substrate) was prepared from the methyl ester of LTA4 (Biomol, Inc., Plymouth Meeting, Pa.) by treating the methyl ester with 30 molar equivalents of LiOH at room temperature for 18 hours. The LTA4 substrate in its free acid form was kept frozen at -80° C. until needed. […] Each reaction was carried out at room temperature for 10 minutes. The reaction was stopped by diluting 25 μl of the reaction mixture with 500 μl of the assay buffer without DMSO. LTB4 was quantified in the diluted sample by a commercially available enzyme-linked immunoassay [Caymen Chemical Co., Ann Arbor, Mich.] using the method recommended in the manufacturer's instructions and compared to the amount of LTB4 produced in a negative control (i.e., essentially identical conditions except without addition of an inhibitor compound). The IC50 was routinely calculated from the data produced.

[2] = test system: LTB4 production in mouse blood; assay: Murine Ex Vivo LTB4 Inhibition, calcium ionophore stimulated mouse blood after oral gavage; assay type: in vivo; settings: oral gavage, 1 hour
Experimental: Leukotriene A4 hydrolass inhibitor compounds of the present invention were diluted to a predetermined concentration in phosphate buffered saline containing 2% DMSO and 1% Tween 80. The compounds were administered by oral gavage to adult male outbred mice weighing approximately 20-30 gm at a dose of 10 mg/kg body weight. (Compounds given at a dose of 50 mg/kg body weight are designtated in following Table by the symbol, *.) Sixty (60) minutes after administration of an LTA4 inhibitor compound of the invention, blood was collected (into heparin-containing tubes) from the retroorbital sinus. […] The mixture was incubated for 10 minutes at 37° C. in a humidified incubator. The reaction was terminated by centrifugation (833 g, 10 minutes at 4° C.). Supernatants were analyzed for LTB4 and thromboxane by commercially available enzyme-linked immunoassays [Caymen Chemical Co., Ann Arbor, Mich.] in accordance with the manufacturer's instructions. The percent inhibition was determined by comparison to animals treated identically except that the solution admininstered by oral gavage was devoid of inhibitor compound.

[3] = test system: LTB4 production in human blood; assay: Inhibition of Calcium Ionophore-Induced LTB4 Production in Human Blood (HWB); assay type: cell-based; settings: Homo sapiens, human whole blood, A23187 20 mcg/ml; read-out: Inhibition of Calcium Ionophore-Induced LTB4 Production in Human Blood IC50 HWB

Compound | IC50 [1] [nM] | Murine Ex Vivo LTB4 Inhibition % I LTB4 at 1 hour after administration of 10 mg/kg [2] [%] | IC50 [3] [nM] | Murine Ex Vivo LTB4 Inhibition % I LTB4 at 1 hour after administration of 50 mg/kg (*) ([2]; 50 mg/kg (*)) [%]
FC(F)(c1ccccc1)c1ccc(OCCN2CCCC2)cc1 [Example 67] | 11 | 0 |  | 
CCOC(=O)CNCCCCCOc1ccc(Cc2ccccc2)cc1 [Example 321] | 250 | 87 | 421 | 
CNC(=O)C1CCN(CCOc2ccc(Cc3ccccc3)cc2)CC1 [Example 420] | 57 | 93 | 133 | 
COC(=O)CCN(C)CCCOc1ccc(Cc2ccsc2)cc1 [Example 330] |  | 95 | 90 | 
NC(=O)C1CCN(CCOc2ccc(Cc3ccccc3)cc2)CC1 [Example 242] | 132 | 95 | 608 | 
c1ccc(Cc2ccc(OCCn3cnc4cnccc43)cc2)cc1 [Example 340B] |  | 64 | 330 | 
c1ccc(Cc2ccc(OCCN3CCC(c4nnn[nH]4)CC3)cc2)cc1 [Example 450] | 240 | 91 |  | 
c1ccc(Cc2ccc(OCCn3cnc4ncccc43)cc2)cc1 [Example 338B] | 8 |  | 330 | 92
CN(CCCOc1ccc(Cc2ccc(F)cc2)cc1)CCC(=O)O [Example 336] | 31 | 99 | 187 | 
c1ncc(Cc2ccc(OCCN3CCCC3)cc2)s1 [Example 122] | 77 | 57 |  | 
COC(=O)CC1CCN(CCOc2ccc(Cc3ccccc3)cc2)C1 (stereo not shown) [Example 275] | 390 | 75 | 146 | 
CCOC(=O)C1CCN(CCOc2ccc(Cc3ccccc3)s2)CC1 [Example 370] |  | 96 | 680 | 
c1cncc(Cc2ccc(OCCN3CCCC3)cc2)c1 [Example 125] | 87 | 46 |  | 
O=C(O)C1CCN(CCOc2ccc(Cc3ccccc3)cc2)CC1 [Example 429] |  | 80 | 288 | 
COC(=O)CCN(C)CCCOc1ccc(Cc2ccccc2)s1 [Example 375] |  | 67 | 240 | 
CCOC(=O)CCN(C)CCCOc1ccc(Cc2ccccc2)cc1 [Example 412] | 190 |  | 240 | 
c1ccc(Cc2ccc(OCCn3cnc4ncncc43)cc2)cc1 [Example 357A] |  | 57 |  | 
c1ccc(Oc2ccc(OCCN3CCCC3)cc2)cc1 [Example 44, 1-[2-(4-phenoxyphenoxy)ethyl]pyrrolidine] | 30 | 25 |  | 
C(=C\c1ccc(OCCN2CCCC2)cc1)/c1ccccc1 [Example 46] | 1350 |  | 1500 | 
O=C(O)CCNCCCCOc1ccc(Cc2ccccc2)cc1 [Example 433] | 18 |  | 49 | 
CCOC(=O)CC(NCCOc1ccc(Cc2ccccc2)cc1)c1cccnc1 (stereo not shown) [Example 271] | 11000 |  | 7980 | 
c1csc(Cc2ccc(OCCN3CCCC3)cc2)n1 [Example 121] | 69 | 48 |  | 
